Measured values published in patent US20040259948A1, “Reciprocal regulation of inflammation and lipid metabolism by liver X receptors” (priority 2003, published 2004).

Columns and labels:
[1] = system: human smooth muscle cells; assay: TNF-induced gene expression in human smooth muscle cells; assay type: cell-based; settings: TNF 6 hours; real time qPCR
Description: Activation of LXR by synthetic ligands inhibits inflammatory gene expression in multiple human cell types (FIG. 7A-C). TNFα plays a role in the induction of inflammatory mediators in during inflammation. Cells were treated for 6 hours with TNF as indicated and gene expression was measured by real time qPCR.

[2] = system: Thioglycolate-elicited peritoneal macrophages; assay: DNA microarray analysis of LPS-activated macrophages; assay type: cell-based, mice; settings: 2 μM 18 h, then 100 ng/ml LPS 6 h
Description: DNA microarrays were used to further examine the effect of LXR activation on LPS-induced gene transcription. […] Cells were harvested 6 hours after LPS stimulation and total RNA from these samples was used to probe Affymetrix U74Av2 arrays. The array data were analyzed using GeneSpring software to identify genes regulated by the ligand in the cells. […] Genes involved in inflammation or lipid metabolism were selected based on ligand-dependent changes in expression in the cells. […] DNA microarray analysis. […] Total RNA was reverse transcribed using a T7-(dT)24 primer (Genset Corp.). Biotin-labeled cRNA was generated using the Bioarray High Yield Transcript Labeling Kit (ENZO). Samples were hybridized to single Affymetrix Murine U74Av2 microarrays and visualized by the PAN Facility at Stanford University. Data was analyzed using GeneSpring and GeneChip Analysis Suite software (Affymetrix). Only those results determined by the software to represent significant expression differences in the presence or absence of ligand are presented. Positive results were defined as ligand-dependent changes in expression in wild-type cells.

[3] = system: atherosclerotic aortas of Apoe−/− mice; assay: Gene expression in atherosclerotic aortas of Apoe−/− mice; assay type: in vivo; settings: Apoe−/− mice 8 months of age, treated 3 days
Description: Next, the influence of LXR agonists on inflammatory gene expression induced by IL-1β and TNFα, which have been implicated in the pathogenesis of atherosclerosis, was tested. […] Gene expression was detected by real-time quantitative PCR assays. […] Total RNA was isolated from individual aortas and gene expression was measured by real-time quantitative PCR. P<0.05 for MMP-9 (*) and P<0.01 (**) for ABCA1. […] Thus, LXR agonist reduces expression of an established inflammatory mediator in the vessel wall. RNA and protein analysis. Total RNA was extracted using Trizol reagent (Life Technologies, Inc.). Northern blot analysis was carried out as described using radiolabeled cDNA probes (Tontonoz, P. et al. 1998 Cell 93:241-252). Real-time quantitative PCR (TaqMan) analysis was performed using an Applied Biosystems 7700 sequence detector. Two-step real-time PCR was performed as described (Joseph, S. B. et al. 2002 J Biol Chem 277:11019-11025). The primers and probes used are as follows: Animals. Mice on a mixed background (C57B1/6 and 129v) and Apoe^−/− mice on a C57B1/6 background were maintained on standard chow. […] Irritant contact dermatitis was induced as described (Sheu, M. Y. et al. 2002 J Invest Dermatol 118:94-101). Briefly, 10 μl of 0.03% 12-O-tetradecanoylphorbol-13-acetate (TPA) in acetone was applied to the left ears of male mice. The right ears were treated with vehicle alone. […] After 18 h of TPA treatment, the thickness and weight of 6-mm punch biopsies were determined. Statistical analysis was performed using Student's t-test. Experiments were conducted in accordance of the Animal Research Committee of the University of California, Los Angeles.

[4] = system: Thioglycolate-elicited peritoneal macrophages; assay: Macrophage response to E. coli infection: iNOS mRNA and NO production; assay type: cell-based, murine; settings: 18 h, pretreated with 1 μM ligand
Description: Thioglycolate-elicited peritoneal macrophages were infected in vitro with Escherichia coli. After 18 hours, expression of inducible nitric oxide synthase (iNOS) mRNA and nitric oxide (NO) production were assessed. […] Cells were then infected with E. coli (A, B) or treated with 100 ng/ml LPS(C, D, E) as indicated. After 18 h, NO production was determined using a colorimetric assay (A, D), or mRNA levels were determined using real-time quantitative PCR assays (B, C, E).
Thioglycolate-elicited peritoneal macrophages were cultured in RPMI containing 10% fetal bovine serum (FBS). […] For ligand treatments, cells were in cultured medium supplemented with 5% lipoprotein-deficient serum (LPDS) and ligands for 18 h before stimulation. […] NO production was determined spectrophotometrically (Castrillo, A. et al. 2000 Mol Cell Biol 20:1692-1698).
Total RNA was extracted using Trizol reagent (Life Technologies, Inc.). […] Real-time quantitative PCR (TaqMan) analysis was performed using an Applied Biosystems 7700 sequence detector.

[5] = system: Thioglycolate-elicited murine peritoneal macrophages; assay: IL-1β- or TNFα-induced inflammatory gene expression in macrophages; assay type: cell-based; settings: pretreated 18 h; IL-1β or TNFα (50 ng/ml); real-time quantitative PCR
Description: Next, the influence of LXR agonists on inflammatory gene expression induced by IL-1β and TNFα, which have been implicated in the pathogenesis of atherosclerosis, was tested. […] Gene expression was detected by real-time quantitative PCR assays. […] Total RNA was isolated from individual aortas and gene expression was measured by real-time quantitative PCR. P<0.05 for MMP-9 (*) and P<0.01 (**) for ABCA1. […] Thus, LXR agonist reduces expression of an established inflammatory mediator in the vessel wall. Cell culture and transfections. Thioglycolate-elicited peritoneal macrophages were cultured in RPMI containing 10% fetal bovine serum (FBS). RAW 264.7 cells were cultured in DMEM containing 10% FBS. For ligand treatments, cells were in cultured medium supplemented with 5% lipoprotein-deficient serum (LPDS) and ligands for 18 h before stimulation. Bacterial infection in vitro was performed as described (Chen, L. M. et al. 1996 Mol Microbiol 21:1101-1115). Transient transfections of RAW 264.7 cells were performed in triplicate in 48-well plates using Superfect reagent (Life Technologies). After transfection, cells were incubated in medium containing 10% LPDS and the indicated ligands for 18 h before stimulation with LPS for an additional 18 h. Luciferase activity was normalized to β-galactosidase activity. NO production was determined spectrophotometrically (Castrillo, A. et al. 2000 Mol Cell Biol 20:1692-1698). RNA and protein analysis. Total RNA was extracted using Trizol reagent (Life Technologies, Inc.). Northern blot analysis was carried out as described using radiolabeled cDNA probes (Tontonoz, P. et al. 1998 Cell 93:241-252). Real-time quantitative PCR (TaqMan) analysis was performed using an Applied Biosystems 7700 sequence detector. Two-step real-time PCR was performed as described (Joseph, S. B. et al. 2002 J Biol Chem 277:11019-11025). The primers and probes used are as follows: […]

SMILES: O=C(O)Cc1cccc(OCCCN(Cc2cccc(C(F)(F)F)c2Cl)CC(c2ccccc2)c2ccccc2)c1 [GW3965]
- TNF-induced gene expression [1]: inhibited
- expression of cluster of genes of macrophage innate immune response (iNOS, COX-2, IL-6, IL-1β, G-CSF, MCP-1, MCP-3, MIP-1β, IP-10, MMP-9) [2]: inhibited
- expression of genes involved in lipid metabolism (incl. Abca1) [2]: most highly induced
- expression of genes involved in other cellular processes [2]: not significantly altered
- Change: Apoptosis inhibitor 2 ([2]; apoptosis gene): 1.10
- Change: Apoptosis inhibitor 3 ([2]; apoptosis gene): 0.83
- Change: Apoptosis signal-regulating kinase 1 ([2]; apoptosis gene): 0.99
- Change: Apoptosis-inducing factor AIF (Aif) ([2]; apoptosis gene): 0.83
- Change: Bc1-10 protein ([2]; apoptosis gene): 1.13
- Change: Bc12-associated X protein ([2]; apoptosis gene): 1.15
- Change: Bc12-like ([2]; apoptosis gene): 0.80
- Change: Bc12 homologous antagonist/killer ([2]; apoptosis gene): 0.94
- Change: Caspase 2 ([2]; apoptosis gene): 1.10
- Change: Caspase 3, apoptosis related cysteine protease ([2]; apoptosis gene): 1.40
- Change: Caspase 7 ([2]; apoptosis gene): 0.94
- Change: Caspase 9 ([2]; apoptosis gene): 0.79
- Change: Caspase 11 ([2]; apoptosis gene): 0.92
- Change: E1B 19 K/Bc1-2-binding protein homolog (Nip3) ([2]; apoptosis gene): 1.14
- Change: Avian reticuloendotheliosis viral (v-rel) oncogene related B ([2]; cell-cycle gene): 1.21
- Change: Cell division cycle 42 ([2]; cell-cycle gene): 1.06
- Change: Cyclin 1 ([2]; cell-cycle gene): 1.05
- Change: Cyclin B2 ([2]; cell-cycle gene): 0.68
- Change: Cyclin F ([2]; cell-cycle gene): 0.72
- Change: Cyclin G2 ([2]; cell-cycle gene): 0.83
- Change: Cyclin dependent kinase inhibitor 2B (Cdkn2b) ([2]; cell-cycle gene): 1.15
- Change: Cyclin-dependent kinase 5 ([2]; cell-cycle gene): 1.00
- Change: Cyclin-dependent kinase inhibitor 1A (P21) ([2]; cell-cycle gene): 0.85
- Change: Cyclin-dependent kinase inhibitor 1C (P57) ([2]; cell-cycle gene): 1.28
- Change: Early growth response 2 ([2]; cell-cycle gene): 0.96
- Change: Growth arrest specific 1 ([2]; cell-cycle gene): 0.91
- Change: Growth arrest specific 2 ([2]; cell-cycle gene): 0.92
- Change: Growth arrest specific 7 ([2]; cell-cycle gene): 1.22
- Change: Guanine Nucleotide Regulatory Protein ([2]; cell-cycle gene): 1.12
- Change: Met proto-oncogene ([2]; cell-cycle gene): 1.12
- Change: Proliferating cell nuclear antigen ([2]; cell-cycle gene): 1.13
- expression of ABCA1 in aorta ([3]; real-time quantitative PCR): induced
- expression of macrophage-specific marker CD68 in aorta ([3]; real-time quantitative PCR): did not affect
- expression of MCP-1 in aorta ([3]; versus vehicle): not different
- expression of MMP-9 in aorta ([3]; versus vehicle): substantially reduced
- expression of iNOS in aorta ([3]; versus vehicle): not different
- iNOS activity (NO / nitrite production) ([4]; colorimetric assay): reduced
- iNOS mRNA ([4]; real-time quantitative PCR): significantly reduced
- induction of IL-6 expression [5]: inhibited
- induction of iNOS expression [5]: inhibited
